Data reported in PMC13576449, “Small-Molecule Activators of PRMT1: Discovery, SAR Analyses, and Proapoptotic Effects in Pancreatic Cancer Cells” (Journal of Medicinal Chemistry, 2026).

target: T1, FLAG-tagged PRMT6 (Homo sapiens, UniProt Q96LA8); assay: Fluorescence-based in vitro PRMT assay (F-PRMT assay), PRMT6; assay type: biochemical; settings: Table S2; 100 µM compound, vs solvent control = 100%, n=3; racemates used
T1 construct: The complete ORFs of human PRMT3 and PRMT6 were inserted; made in house; host or cells: Sf9 insect cells (baculovirus)
Excerpt: (§1) To evaluate the effects of the selected candidate molecules on the catalytic activity of type I enzymes, we employed a quantitative fluorescence-based in vitro PRMT activity (F-PRMT) assay using recombinant FLAG-tagged PRMT proteins expressed and affinity-purified from baculovirus-infected Sf9 cells (SI Figure S1, SI Figure S2A).
(§2) Human cell lines (PaTu8988T, PANC-1) were obtained from ATCC (American Type Culture Collection) and cultured in DMEM supplemented with 10% fetal calf serum (FCS, Gibco/BRL), 1% penicillin/streptomycin at 37 °C and 5% CO2. […] For PRMT1 inhibition, cells were treated with type I PRMT inhibitor MS023 hydrochloride (Biomol). For induction of genotoxic stress, cells were treated with gemcitabine (LC Laboratories). […] The following plasmids were used: pFASTBAC-FLAG-rat PRMT1, pFASTBAC-FLAG-mouse PRMT4, and pGEX-GAR. The complete ORFs of human PRMT3 and PRMT6 were inserted into the pFASTBAC HT-3xFLAG B vector via BamHI/HindIII and BamHI/XhoI sites, respectively.
(§3) For PRMT protein expression in insect cells, recombinant baculovirus (bacmid) was generated using the Bac-to-Bac baculovirus system (Invitrogen). Sf9 cells were transfected with bacmid DNA using X-tremeGENE HP DNA transfection reagent (Sigma-Aldrich) according to the manufacturer's instructions. After 3–5 days, supernatants were collected, filtered, and used to infect Sf9 cells to amplify the virus. After 2 rounds of virus amplification and estimation of the final P3 virus titer, the P3 virus (2–5 μL/10^6 cells) was applied for large-scale infection of 200 × 10^6 Sf9 cells in suspension culture at a density of 1 × 10^6 cells/mL. Cells were harvested 5–6 days post-infection by centrifugation at 500 g for 5 min at room temperature. Protein purification from baculovirus-infected Sf9 cells was performed as previously described. , Cells were lysed in BC buffer (20 mM HEPES pH 7.9, 250 mM NaCl, 10% (v/v) glycerin, 0.4 mM EDTA, 1 mM DTT) containing a protease inhibitor cocktail (Roche) by 3 freeze-thaw cycles. After centrifugation at 11,000 rpm (Sorval SS34 rotor) and 4 °C for 1 h, the supernatant (whole cell protein extract) was incubated with anti-FLAG M2 Affinity Gel (Cytiva) at 4 °C and under agitation for 4 h. Subsequently, beads were washed in BC buffer containing various NaCl concentrations (once in BC with 1 M NaCl, twice in BC with 500 mM NaCl, twice in BC with 250 mM NaCl and twice in BC with 100 mM NaCl). FLAG-tagged proteins were either maintained bead-bound as a 50% (v/v) slurry in BC buffer with 100 mM NaCl and stored at −80 °C or were eluted in the appropriate elution buffer (depending on the subsequent assay) containing 0.25 mg/mL 3xFLAG peptides (Sigma-Aldrich) at 4 °C for 30–45 min. To remove the FLAG-peptides from the eluate, dialysis was performed in elution buffer containing 10% (v/v) glycerol at 4 °C for 4–6 h using Slide-A-Lyzer Dialysis Devices (Thermo Fisher Scientific) according to the manufacturer’s recommendations.
(§4) In the first step, the fluorogenic substrate Nα-Benzoyl-L-arginine-7-amido-4-methylcoumarin (Bz-Arg-AMC, Sigma-Aldrich) undergoes methylation by PRMTs upon the addition of the cofactor SAM. In the second reaction step, trypsin cleaves the nonmethylated substrate, leading to the generation of the 7-amino-4-methylcoumarin product, which can be quantified by subsequent fluorescence measurement (excitation: 355 nm, emission: 460 nm). The first reaction was conducted with bead-bound PRMTs at a total volume of 100 μL. Each condition was performed as a technical triplicate to determine the mean and the standard deviation. […] For the negative controls, SAM was substituted with assay buffer. The incubation was continued at 37 °C and under agitation (1,000 rpm) for a duration of 2 h.

T1 sequence (Q96LA8 whole entry): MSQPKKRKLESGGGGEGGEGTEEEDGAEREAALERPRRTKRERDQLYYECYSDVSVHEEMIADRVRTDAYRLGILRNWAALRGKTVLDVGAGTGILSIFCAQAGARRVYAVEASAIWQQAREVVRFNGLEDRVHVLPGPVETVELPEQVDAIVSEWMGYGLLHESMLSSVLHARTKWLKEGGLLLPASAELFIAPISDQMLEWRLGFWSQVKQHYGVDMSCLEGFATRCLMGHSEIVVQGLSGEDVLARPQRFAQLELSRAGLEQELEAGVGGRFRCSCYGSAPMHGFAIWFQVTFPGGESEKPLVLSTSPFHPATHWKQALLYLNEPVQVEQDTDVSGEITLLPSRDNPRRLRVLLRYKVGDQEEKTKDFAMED

Row | SMILES | Experimental result (PRMT6)
1 | CN1CCC[C@H]1CCn1ccnc1-c1ccc2nonc2c1 (racemic) [Compound K002FT007] | n.e. (did not significantly affect the catalytic activity of the intended PRMT (less than ±6% change or not significant p-value), are marked with n.e. (no effect))
2 | CCN(CC(=O)NCCc1cccc(Cl)c1)C1CNC1 [Compound K600JK006] | n.e. (did not significantly affect the catalytic activity of the intended PRMT (less than ±6% change or not significant p-value), are marked with n.e. (no effect))
3 | CC(C)(C)c1cccc(OCCNC2CC(CN)C2)c1 (stereo not drawn) [Compound K600JK008] | n.e. (did not significantly affect the catalytic activity of the intended PRMT (less than ±6% change or not significant p-value), are marked with n.e. (no effect))

target: T2, FLAG-tagged PRMT4 (Mus musculus, UniProt Q9WVG6); assay: Fluorescence-based in vitro PRMT assay (F-PRMT assay), PRMT4; assay type: biochemical; settings: Table S2; 100 µM compound, vs solvent control = 100%, n=3; racemates used
T2 construct: Full-length FLAG-tagged PRMT protein; made in house; host or cells: Sf9 insect cells (baculovirus)
T2 sequence (Q9WVG6 1-608): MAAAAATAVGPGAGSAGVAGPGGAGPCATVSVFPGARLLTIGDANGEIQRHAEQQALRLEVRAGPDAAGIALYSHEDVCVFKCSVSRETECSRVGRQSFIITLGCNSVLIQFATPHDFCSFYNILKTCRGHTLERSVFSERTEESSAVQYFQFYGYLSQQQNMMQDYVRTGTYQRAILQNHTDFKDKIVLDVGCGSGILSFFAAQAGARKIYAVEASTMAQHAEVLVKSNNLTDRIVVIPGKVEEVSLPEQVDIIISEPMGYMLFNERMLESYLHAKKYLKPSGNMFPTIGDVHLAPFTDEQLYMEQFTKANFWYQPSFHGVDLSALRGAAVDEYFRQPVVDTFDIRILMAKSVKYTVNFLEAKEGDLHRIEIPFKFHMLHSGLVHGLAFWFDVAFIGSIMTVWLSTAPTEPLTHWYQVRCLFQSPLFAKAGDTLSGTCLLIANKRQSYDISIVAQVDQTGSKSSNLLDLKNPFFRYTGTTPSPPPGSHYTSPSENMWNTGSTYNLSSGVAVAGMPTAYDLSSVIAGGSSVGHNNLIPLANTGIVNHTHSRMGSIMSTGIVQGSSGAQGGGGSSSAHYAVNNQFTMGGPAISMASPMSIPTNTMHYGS
Excerpt: as §1, §2, §3, §4

Row | SMILES | Experimental result (PRMT4)
4 | Cc1ccc([N+](=O)[O-])c(OCCC(=O)Nc2ccc(O)cc2C)c1 [Compound K001JS012] | n.e. (did not significantly affect the catalytic activity of the intended PRMT (less than ±6% change or not significant p-value), are marked with n.e. (no effect))
5 | CNC(=O)COc1ccc(NC(=O)[C@@H]2NC[C@@H]3C[C@@H]32)cc1 (racemic) [Compound K400JK006] | n.e. (did not significantly affect the catalytic activity of the intended PRMT (less than ±6% change or not significant p-value), are marked with n.e. (no effect))
6 | N/C(Cn1ccn2nc(-c3cccs3)cc2c1=O)=N\O [Compound K400JK015] | n.e. (did not significantly affect the catalytic activity of the intended PRMT (less than ±6% change or not significant p-value), are marked with n.e. (no effect))
7 | COc1cccc(CNC(=O)NCc2nc3ccccc3s2)c1 [Compound K001FT008] | n.e. (did not significantly affect the catalytic activity of the intended PRMT (less than ±6% change or not significant p-value), are marked with n.e. (no effect))
8 | Cn1ccnc1Cn1c(CCCN)nc2c1CCCC2 [Compound K001FT006] | n.e. (did not significantly affect the catalytic activity of the intended PRMT (less than ±6% change or not significant p-value), are marked with n.e. (no effect))
9 | COC(=O)COc1ccc(NC(=O)C23CC(CN2)C3)cc1 [Compound K400JK003] | n.e. (did not significantly affect the catalytic activity of the intended PRMT (less than ±6% change or not significant p-value), are marked with n.e. (no effect))
10 | CNCCCc1ncc(-c2ccccc2Br)[nH]1 [Compound K001FT002] | n.e. (did not significantly affect the catalytic activity of the intended PRMT (less than ±6% change or not significant p-value), are marked with n.e. (no effect))
11 | O=c1ccc([N+](=O)[O-])cn1Cc1nccn1Cc1ccccc1 [Compound K001JS009] | n.e. (did not significantly affect the catalytic activity of the intended PRMT (less than ±6% change or not significant p-value), are marked with n.e. (no effect))

same assay, conditions: Table S2; 100 µM compound; mean % difference vs solvent control (100%), n=3

Row | SMILES | Efficacy ±∆% (PRMT4)
12 | CCS(=O)(=O)Nc1ccc(NC(=O)C23CC(CN2)C3)cc1 [Compound K400JK004] | +8%
13 | NCCNC[C@@H](O)COc1ccc(Cl)c(Cl)c1 (racemic) [Compound K001FT003] | -50%

target: T3, FLAG-tagged PRMT1 (Rattus norvegicus, UniProt Q63009); assay: Fluorescence-based in vitro PRMT assay (F-PRMT assay), PRMT1; assay type: biochemical; settings: 100 μM compound
T3 construct: Full-length FLAG-tagged PRMT protein; made in house; host or cells: Sf9 insect cells (baculovirus)
T3 sequence (Q63009 whole entry): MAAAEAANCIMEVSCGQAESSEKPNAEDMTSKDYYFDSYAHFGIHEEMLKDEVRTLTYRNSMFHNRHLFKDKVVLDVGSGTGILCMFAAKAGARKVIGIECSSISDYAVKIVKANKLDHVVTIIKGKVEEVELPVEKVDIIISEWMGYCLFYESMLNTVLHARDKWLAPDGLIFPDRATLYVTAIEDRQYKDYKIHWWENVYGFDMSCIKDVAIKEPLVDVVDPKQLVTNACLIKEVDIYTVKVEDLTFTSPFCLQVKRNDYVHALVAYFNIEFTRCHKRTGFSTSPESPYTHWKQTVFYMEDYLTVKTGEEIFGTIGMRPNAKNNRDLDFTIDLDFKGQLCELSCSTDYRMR

Row | SMILES | effect on PRMT1 activity (in words)
14 | CN(C)CCCN/C=C1\C(=O)NC(=O)c2ccccc21 [TR-018, (Z)-4-({[3-(Dimethylamino)propyl]amino}methylene)isoquinoline-1,3(2H,4H)-dione] | activated PRMT1 in a significant manner, albeit to a considerably lesser extent than TR-07
15 | CCN(CC)Cc1ccccc1-c1ccc2[nH]c(=O)c3ccccc3c2c1 [ICTR-094] | significantly lower activation of PRMT1 compared to TR-07
16 | O=C1NC(=O)c2ccccc2C1=CNc1ccccc1Cn1cccc1 [ICTR-036] | no significant or minimal inhibitory activity
17 | O=C1NC(=O)c2ccccc2C1=CNCc1cccnc1 [TR-032] | activated PRMT1 in a significant manner, albeit to a considerably lesser extent than TR-07
18 | O=C1NC(=O)c2ccccc2C1=CNc1ccccc1Cn1cncn1 [ICTR-042] | no significant or minimal inhibitory activity

Now from value to compound:

Row | effect on PRMT1 activity (in words) | SMILES
19 | significantly increased PRMT1 activity | CCN(CC)Cc1cccc(-c2ccc3[nH]c(=O)c4ccccc4c3c2)c1 [ICTR-096]
20 | no effect | CCN(CC)c1ccccc1N/C=C1\C(=O)NC(=O)c2ccccc21 [ICTR-060]
21 | strong inhibitory effect | O=C1NC(=O)c2ccccc2C1=CNc1cccc(CN2CCOCC2)c1 [TR-038]
22 | no effect or a modest activating effect | C[N+](C)(C)Cc1cccc(CN/C=C2\C(=O)NC(=O)c3ccccc32)c1.[I-] [ICTR-108]
23 | no significant effect | O=C1NC(=O)c2ccccc2C1=CNc1cccnc1 [TR-031]
24 | no significant effect | CCN(CC)Cc1ccccc1CN/C=C1\C(=O)NC(=O)c2ccccc21 [ICTR-119]
25 | reduced activating effect | CN(C)Cc1ccccc1CN/C=C1\C(=O)NC(=O)c2ccccc21 [ICTR-063]
26 | no effect | CC(C)Cc1ccc(N/C=C2\C(=O)NC(=O)c3ccccc32)cc1 [ICTR-076]
27 | no effect or a modest activating effect | CN(C)c1ccccc1CN/C=C1\C(=O)NC(=O)c2ccccc21 [ICTR-052]
28 | equal | CN(C)Cc1ccccc1N/C=C1\C(=O)NC(=O)c2ccccc21 [TR-022]
29 | no effect | Nc1ccccc1N/C=C1\C(=O)NC(=O)c2ccccc21 [ICTR-019]
30 | no effect | CN(C)c1ccccc1N/C=C1\C(=O)NC(=O)c2ccccc21 [ICTR-015]
31 | no significant effect | O=C1NC(=O)c2ccccc2/C1=C/Nc1ccccn1 [TR-030, (Z)-4-[(Pyridin-2-ylamino)methylene]isoquinoline-1,3(2H,4H)-dione]

same assay, conditions: 100 μM compound, increase over solvent-treated activity; read-out: enhancement (increase) of PRMT1 enzymatic activity

Row | SMILES | activation at 100 µM [%]
32 | CN(C)Cc1ccc(N/C=C2\C(=O)NC(=O)c3ccccc32)cc1 [TR-021] | ≥ 60
33 | CCN(CC)Cc1cccc(-c2ccc3[nH]c(=O)c4ccccc4c3c2)c1 [ICTR-096] | ≥ 60
